Laboratory results from US11524012B1, “Quinolone analogs and their salts, compositions, and method for their use” (Senhwa Biosciences, Inc., priority 2018, dated 2022).

Test: Stability study of lyophilized Compound I with mannitol (Method A / Method B samples)
Format: physicochemical
Conditions: Method B sample
Experimental: […] Each 30 mL Type I, clear glass sample vial with 20 mm Freeze Dry Stoppers (Flurotech™ coated) contained 150 mg of Compound I.
At each time point, a vial was removed from the stored condition and reconstituted with 10 mL of D5W and analyzed by HPLC method as discussed in Example 5 at 1 month, 2 months, 3 months, and/or 6 months. In Tables 18-18e, RRT matches the Compounds as shown below.
Sample Preparation—Method A: 10% Mannitol solution was prepared by weighing 200 g±1.0 g of mannitol into glass beaker, adding approximately 1500 mL of WFI (water for injection) to the beaker and stirring until mannitol was dissolved. The mannitol solution was transferred to a 2 L volumetric flask and made to volume with WFI, then poured back to the original beaker to sir and mix further. 1M HCl solution was prepared by adding 16.4 mL of HCl (37%) to a 200 mL volumetric flask containing approximately 100 mL of WFI, adding WFI to make 200 mL in volume, and inverting to mix the prepared solution.
To a tared 2 L Schott bottle containing a magnetic stirrer and wrapped in aluminum foil, 1020 g±1.0 g of the 10% mannitol solution was added. Then, 58.4 g±0.05 g of the 1M HCl solution was added to the 2 L Schott bottle and stirred for approximately 10 minutes. The solution prepared in the 2 L Schott bottle was purged with nitrogen which was continued throughout the manufacturing process. 30.22 g of Compound I (free base) was weighed then added to the 2 L Schott bottle containing 10% mannitol solution and 1 M HCl solution with continual magnetic stirring. The container used to weigh Compound I was rinsed with 3×10 mL of WFI and added to the Schott bottle. After Compound I dissolved (approximately 40 minutes), additional 650 g of WFI was added to the Schott bottle and the solution was stirred for approximately 10 minutes. The pH of the Compound I solution (in Schott bottle) was measured then adjusted to pH 4.5±0.1 using 1 M HCl solution. After each addition of 1 M HCl solution, the solution was stirred for several minutes prior to verifying the pH. Once the pH was adjusted, nitrogen purging was stopped. The pH adjusted Compound I solution was further diluted with WFI to a target weight of 2040 g±1.0 g and stirred.
The final solution (pH adjusted and diluted) was filtered (chain including PVD Fmembrane filter 0.45 μm and 0.22 μm; peristaltic filtration pump by Watson Marlow) in the Bigneat and the bottle containing the filtered solution was sealed. The filtered solution was pumped (Watson Marlow Flexicon PF6-B pump; 100 RPM) into 30 mL Schott Clear Glass vials (10.0 mL filtered solution each). The glass vials were partially stoppered with 20 mm Freeze Dry Stopper Flurotec (Daikyo Seiko) one vial at a time with sterilized utensils inside a fume hood (Envair B101+1.5R) and placed on freeze dryer trays. The freeze dryer trays were transferred into freeze dry chamber and vial probe was positioned (Lyostar II; FTS Kinetics). Lyophilization was performed using the lyophilization cycle listed below. After lyophilization cycle finished, the vials were back filled with N2 and the stopper was placed in situ, wiped down with isopropanol in the fume hood once removed from the freeze dryer, reconciled, then crimped. Seven vials out of 186 sample vials placed under the lyophilization cycle had smashed in the freeze dryer.
Sample Preparation—Method B (dissolved oxygen content ≤1 ppm): 2 L WFI was poured into a Schott bottled and degassed for 30 minutes with N2 until dissolved oxygen content was ≤1 ppm (dissolved oxygen meter and probe; Mettler Toledo). 10% Mannitol solution was prepared by adding […] of mannitol and 1000 mL of degassed WFI to a tared 2 L Schott bottle containing a magnetic stirrer and wrapped in aluminum foil. To the Schott bottle containing mannitol, 15 mL of 2M HCl was added and stirred for approximately 10 minutes. The resulting solution was sparged with N2 while stirring until dissolved oxygen content was ≤1 ppm (approx. 30 min). […]

[1] = 5° C, time not printed (2nd block, col 1)
[2] = 5° C, time not printed (2nd block, col 2)
[3] = 5° C, time not printed (2nd block, col 3)
[4] = 5° C, time not printed (2nd block, col 4)

Cc1cnc(CNC(=O)c2c(=O)c3ccc(N4CCCN(C)CC4)nc3n3c2sc2ccccc23)cn1 [Compound I, 2-(4-Methyl-[1,4]diazepan-1-yl)-5-oxo-5H-7-thia-1,11b-diaza-benzo[c]fluorene-6-carboxylic acid (5-methyl-pyrazin-2-ylmethyl)-amide]
pH (USP<791>) (5° C, Initial): 4.6 | Appearance [1]: Off-white powder | Appearance (Reconstituted Solution) [1]: Clear, colorless | Compound I by HPLC assay [1]: 101.7% | Related Substances RRT 1.05 [1]: RRT 1.05: 0.14% | Related Substances RRT 1.07 [1]: RRT 1.07: 0.05% | Related Substances Total [1]: Total:0.2% | Water Content USP<921 Method 1c> [1]: 1.37% | pH (USP<791>) [1]: 4.6 | Appearance [2]: Off-white powder | Appearance (Reconstituted Solution) [2]: Clear, colorless | Compound I by HPLC assay [2]: 101.3% | Related Substances RRT 1.05 [2]: RRT 1.05: 0.13% | Related Substances Total [2]: Total: 0.1% | Water Content USP<921 Method 1c> [2]: 1.29% | pH (USP<791>) [2]: 4.5 | Appearance [3]: Off-white powder | Appearance (Reconstituted Solution) [3]: Clear, colorless | Compound I by HPLC assay [3]: 100.3% | Related Substances RRT 1.05 [3]: RRT 1.05: 0.13% | Related Substances Total [3]: Total: 0.1% | Water Content USP<921 Method 1c> [3]: 1.05% | pH (USP<791>) [3]: 4.5 | Appearance [4]: Off-white powder | Appearance (Reconstituted Solution) [4]: Clear, colorless | Compound I by HPLC assay [4]: 99.1% | Related Substances RRT 1.05 [4]: RRT 1.05: 0.11% | Related Substances Total [4]: Total: 0.1% | Water Content USP<921 Method 1c> [4]: 1.25% | pH (USP<791>) [4]: 4.5 | Appearance (25° C./60% RH, 1 month): White | Appearance (Reconstituted Solution) (25° C./60% RH, 1 month): Clear, colorless | Compound I by HPLC assay (25° C./60% RH, 1 month): 99.8% | Reconstitution Time (25° C./60% RH, 1 month): 55 s | Related Substances RRT 1.06 (25° C./60% RH, 1 month): 0.17% | Related Substances RRT 1.08 (25° C./60% RH, 1 month): 0.06% | Related Substances Total (25° C./60% RH, 1 month): Total: 0.2% | Water Content USP<921 Method 1c> (25° C./60% RH, 1 month): 1.47% | pH (USP<791>) (25° C./60% RH, 1 month): 4.4 | Appearance (25° C./60% RH, 2 months): Off-white | Appearance (Reconstituted Solution) (25° C./60% RH, 2 months): Clear, colorless | Compound I by HPLC assay (25° C./60% RH, 2 months): 101.0% | Related Substances RRT 0.17 (25° C./60% RH, 2 months): 0.08% | Related Substances RRT 1.04 (25° C./60% RH, 2 months): 0.08% | Related Substances RRT 1.05 (25° C./60% RH, 2 months): 0.17% | Related Substances Total (25° C./60% RH, 2 months): Total: 0.3% | Water Content USP<921 Method 1c> (25° C./60% RH, 2 months): 1.30% | pH (USP<791>) (25° C./60% RH, 2 months): 4.6 | Appearance (25° C./60% RH, 3 months): Off-white | Appearance (Reconstituted Solution) (25° C./60% RH, 3 months): Clear, colorless | Compound I by HPLC assay (25° C./60% RH, 3 months): 100.8% | Related Substances RRT 0.17 (25° C./60% RH, 3 months): 0.09% | Related Substances RRT 1.04 (25° C./60% RH, 3 months): 0.08% | Related Substances RRT 1.05 (25° C./60% RH, 3 months): 0.19% | Related Substances Total (25° C./60% RH, 3 months): Total: 0.4% | Water Content USP<921 Method 1c> (25° C./60% RH, 3 months): 1.30% | pH (USP<791>) (25° C./60% RH, 3 months): 4.6 | Appearance (25° C./60% RH, 6 months): Off-white | Appearance (Reconstituted Solution) (25° C./60% RH, 6 months): Clear, colorless | Compound I by HPLC assay (25° C./60% RH, 6 months): 100.3% | Related Substances RRT 0.88 (25° C./60% RH, 6 months): 0.06% | Related Substances RRT 1.05 (25° C./60% RH, 6 months): 0.16% | Related Substances RRT 1.07 (25° C./60% RH, 6 months): 0.10% | Related Substances Total (25° C./60% RH, 6 months): Total: 0.3% | Water Content USP<921 Method 1c> (25° C./60% RH, 6 months): 1.30% | pH (USP<791>) (25° C./60% RH, 6 months): 4.5 | Appearance (25° C./60% RH, 12 months): Off-white | Appearance (Reconstituted Solution) (25° C./60% RH, 12 months): Clear, colorless | Compound I by HPLC assay (25° C./60% RH, 12 months): 100.7% | Related Substances RRT 1.05 (25° C./60% RH, 12 months): 0.18% | Related Substances RRT 1.07 (25° C./60% RH, 12 months): 0.09% | Related Substances Total (25° C./60% RH, 12 months): Total: 0.3% | Water Content USP<921 Method 1c> (25° C./60% RH, 12 months): 1.55% | pH (USP<791>) (25° C./60% RH, 12 months): 4.5 | Appearance (25° C./60% RH, 24 months): Off-white | Appearance (Reconstituted Solution) (25° C./60% RH, 24 months): Clear, colorless | Compound I by HPLC assay (25° C./60% RH, 24 months): 97.6%
